Assay results: PubChem BioAssay AID1845202 (Molecular Pharmacology Branch, DTP, NCI, 2023)

Tested on: DMS 114 tumor spheroids, viability % test/control
Assay: Anticancer human tumor DMS 114 cell line growth inhibition;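 also: spheroids exposed to compounds for 7 days before read-out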;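 as to viability, T/C: luminescence used as a proxy for viable cells; 100% = DMSO vehicle control viability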
Conditions: spheroids with HUVEC and MSC; for IC50: curve of first compound; for viability, T/C: stronger effect = lower value
From the text: Multicellular complex tumor spheroid response to DNA repair inhibitors in combination with DNA-damaging drugs
This study explores the anticancer activities of DNA-damaging drugs and inhibitors of DNA damage repair, both as single agents and in combinations. Complex tumor spheroids comprised of malignant cells, endothelial cells and mesenchymal stem cells served as an in vitro model for human solid tumors. This model system incorporates physiologically relevant features and patient-derived or established malignant cell lines with clinically relevant genetic alterations from many tumor types. Twenty-six patient-derived or established malignant cell lines were evaluated representing sarcoma, melanoma, small cell lung cancer (SCLC), non-small cell lung cancer (NSCLC), as well as bladder, ovarian and pancreatic cancers. The concentration ranges selected for each drug and investigational agent were based upon clinically achievable concentrations if the clinical Cmax of the agent was known.
Compounds. The drugs and compounds olaparib (NSC753686), talazoparib (NSC767125), berzosertib (NSC777718), elimusertib (NSC800525), nedisertib (NSC802822), VX-984 (NSC792969), AZD-1390 (NSC803789), temozolomide (NSC362856), topotecan (NSC609699), trabectedin (NSC813783), staurosporine (NSC755774), and gemcitabine (NSC613327) were obtained from the National Cancer Institute (NCI) Developmental Therapeutics Program Chemical Repository. The FDA-approved anticancer drug set is available from the Developmental Therapeutics Program at https://dtp.cancer.gov/organization/dscb/obtaining/available_plates.htm. […] The stock solutions were prepared in dimethyl sulfoxide (DMSO, Sigma-Aldrich, St. Louis, MO, cat. D2650) at 400-fold the tested concentration and stored at -70 degrees C. Prior to their use, the stock solutions were diluted in fresh medium and the final DMSO concentration in the assay was 0.25% (v/v). All drugs and investigational agents were tested over a range starting from a high concentration at or near the clinical Cmax and decreasing in half-log increments. If the clinical Cmax for an agent had not been determined, the highest concentration tested was 10 microM.
Cell Lines. The patient-derived cancer cell (PDC) lines: 156681-154-R-J1-PDC, 283228-195-R-J1-PDC, 287954-098-R-J1-PDC, 292921-168-R-J2-PDC, 349418-098-R-PDC, 425362-245-T-J1-PDC, 556581-035-R-J1-PDC, and BL0293-F563-PDC were received from the NCI Patient-Derived Models Repository (PDMR, https://pdmr.cancer.gov). The established cell lines HS-SY-2 (RRID:CVCL_8719), MPNST, and SYO-1 (RRID:CVCL_7146) were obtained from the Sloan Kettering Institute. The alveolar soft parts sarcoma cell line ASPS-1 (RRID:CVCL_S738) was established at the NCI and grown from internal seed stocks. The following established cell lines were purchased from the American Type Culture Collection (ATCC, Manassas, VA): G-401 (ATCC, cat. CRL-1441, RRID:CVCL_0270), SW982 (ATCC, cat. HTB-93, RRID:CVCL_1734), VA-ES-BJ (ATCC, cat. CRL-2138, RRID:CVCL_1785), NCI-H719 (ATCC, cat. CRL-5837, RRID:CVCL_1582), NCI-H196 (ATCC, cat. CRL-5823, RRID:CVCL_1509), NCI-H841 (ATCC, cat. CRL-5845, RRID:CVCL_1595), NCI-H1618 (ATCC, cat. CRL-5879, RRID:CVCL_1480), NCI-H1876 (ATCC, cat. CRL-5902, RRID:CVCL_1503), DMS 114 (ATCC, cat. CRL-2066; RRID:CVCL_1174), NCI-H211 (ATCC, cat. CRL-5824; RRID:CVCL_1529), and SW 1271 (ATCC, cat. CRL-2177, RRID:CVCL_1716). The small cell lung cancer cell line COR-L88 was purchased from Sigma-Aldrich (cat. 92031917-1VL, RRID:CVCL_1141). The non-small cell lung cancer cell lines NCI-H226 (RRID:CVCL_1544) and NCI-H322M (RRID:CVCL_1557) were established at the NCI and grown from internal seed stocks. Pooled donor human umbilical vein endothelial cells (HUVEC, Lonza, cat. CC-2519) and human mesenchymal stem cells (hMSC, Lonza, cat. PT-2501) were purchased from Lonza (Walkersville, MD).
Cell Culture. All cells were maintained in an incubator at 37 degrees C and 5% CO2 with 95% humidity. […]

[1] = second compound 0.003 µM, first compound 0.00949 µM
[2] = second compound 0.003 µM, first compound 0.03 µM
[3] = second compound 0.003 µM, first compound 0.0949 µM
[4] = second compound 0.003 µM, first compound 0.3 µM
[5] = second compound 0.003 µM, first compound 0.949 µM
[6] = second compound 0.003 µM, first compound 3 µM
[7] = second compound 0.00949 µM, first compound 0.00949 µM
[8] = second compound 0.00949 µM, first compound 0.03 µM
[9] = second compound 0.00949 µM, first compound 0.0949 µM
[10] = second compound 0.00949 µM, first compound 0.3 µM
[11] = second compound 0.00949 µM, first compound 0.949 µM
[12] = second compound 0.00949 µM, first compound 3 µM
[13] = second compound 0.03 µM, first compound 0.00949 µM
[14] = second compound 0.03 µM, first compound 0.03 µM
[15] = second compound 0.03 µM, first compound 0.0949 µM
[16] = second compound 0.03 µM, first compound 0.3 µM
[17] = second compound 0.03 µM, first compound 0.949 µM
[18] = second compound 0.03 µM, first compound 3 µM
[19] = second compound 0.0949 µM, first compound 0.00949 µM
[20] = second compound 0.0949 µM, first compound 0.03 µM
[21] = second compound 0.0949 µM, first compound 0.0949 µM
[22] = second compound 0.0949 µM, first compound 0.3 µM
[23] = second compound 0.0949 µM, first compound 0.949 µM
[24] = second compound 0.0949 µM, first compound 3 µM
[25] = second compound 0.3 µM, first compound 0.00949 µM
[26] = second compound 0.3 µM, first compound 0.03 µM
[27] = second compound 0.3 µM, first compound 0.0949 µM
[28] = second compound 0.3 µM, first compound 0.3 µM
[29] = second compound 0.3 µM, first compound 0.949 µM
[30] = second compound 0.3 µM, first compound 3 µM

Row | SMILES | IC50 (second compound 0.003 µM) [nM] | IC50 (second compound 0.00949 µM) [nM] | IC50 (second compound 0.03 µM) [nM] | IC50 (second compound 0.0949 µM) [nM] | IC50 (second compound 0.3 µM) [nM] | viability, T/C [1] [%] | viability, T/C [2] [%] | viability, T/C [3] [%] | viability, T/C [4] [%] | viability, T/C [5] [%] | viability, T/C [6] [%] | viability, T/C [7] [%] | viability, T/C [8] [%] | viability, T/C [9] [%] | viability, T/C [10] [%] | viability, T/C [11] [%] | viability, T/C [12] [%] | viability, T/C [13] [%] | viability, T/C [14] [%] | viability, T/C [15] [%] | also measured
1 | CNCc1ccc(-c2cc(-c3nc(-c4ccc(S(=O)(=O)C(C)C)cc4)cnc3N)on2)cc1 + CC[C@@]1(O)C(=O)OCc2c1cc1n(c2=O)Cc2cc3c(CN(C)C)c(O)ccc3nc2-1 | 60 | 25 | < 9.49 | < 9.49 | < 9.49 | 98.5 | 68.3 | 37.7 | 17.1 | 2.3 | 0.16 | 80.3 | 43 | 23.5 | 14.3 | 3.11 | 0.14 | 31.3 | 26.6 | 23.7 | viability, T/C [16]: 11.9%; viability, T/C [17]: 1.54%; viability, T/C [18]: 0.13%; viability, T/C [19]: 16.2%; viability, T/C [20]: 17%; viability, T/C [21]: 12.5%; viability, T/C [22]: 9.06%; viability, T/C [23]: 1.27%; viability, T/C [24]: 0.12%; viability, T/C [25]: 8.52%; viability, T/C [26]: 8.82%; viability, T/C [27]: 9.74%; viability, T/C [28]: 6.32%; viability, T/C [29]: 0.95%; viability, T/C [30]: 0.2%
2 | Cc1sc2c(c1C)C(c1ccc(Cl)cc1)=NC(CC(=O)Nc1ccc(O)cc1)c1nnc(C)n1-2 (stereo not given) + CC[C@@]1(O)C(=O)OCc2c1cc1n(c2=O)Cc2cc3c(CN(C)C)c(O)ccc3nc2-1 | 89.3 | 56.4 | < 9.49 | < 9.49 | < 9.49 | 96.7 | 97.2 | 45.5 | 18.9 | 7.67 | 4.78 | 85 | 67.4 | 35.9 | 12.1 | 5.26 | 3.47 | 24.8 | 19.4 | 13.1 | viability, T/C [16]: 8.01%; viability, T/C [17]: 3.14%; viability, T/C [18]: 1.45%; viability, T/C [19]: 11.7%; viability, T/C [20]: 9.99%; viability, T/C [21]: 5.31%; viability, T/C [22]: 2.68%; viability, T/C [23]: 1.52%; viability, T/C [24]: 0.93%; viability, T/C [25]: 5.77%; viability, T/C [26]: 4.7%; viability, T/C [27]: 3.42%; viability, T/C [28]: 1.6%; viability, T/C [29]: 0.9%; viability, T/C [30]: 0.73%
